This is an account of results in ChEMBL document CHEMBL1201862, “PubChem BioAssay data set” (2004).

Test systems include A498; HCT-116; Hs-578T; IGROV-1; KM12; LOX IMVI; OVCAR-8; RPMI-8226; SK-MEL-28; SK-MEL-2; SK-OV-3; SNB-19; SR; UACC-62; UO-31; HOP-92; NCI-H522; OVCAR-4; SN12C; U-251.
Assay in all cases: growth of human tumour cells (NCI), 48 h

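Dose response: 5 concentrations. Exposure: 48 h. Format: 96-well plates. Endpoint: linear interpolation; highest concentration if not reached. GI50 marks 50% less growth.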 The source made the active and inactive calls. Rule as the data show it: active = GI50 up to about 1.1 µM and inactive = higher. Bounds are passed on as bounds.

As for `COc1cc(Br)cc2c1O[C@H]1C(=O)CC3CC21CCN3C` (some centres undefined), the GI50 in the assay with A498 was > 100 µM (inactive); in the assay on HCT-116, 42 µM (inactive); in the assay on Hs-578T it was 44.7 µM (inactive); in the assay on IGROV-1, 30.8 µM (inactive); in the assay on KM12, 72.3 µM (inactive); in the assay with LOX IMVI, 32.9 µM (inactive). Besides, the GI50 was 19.7 µM (inactive) in the assay on OVCAR-8; 21.8 µM (inactive) with RPMI-8226; > 100 µM (inactive) with SK-MEL-28; > 100 µM (inactive) with SK-MEL-2; > 100 µM (inactive) in the assay with SK-OV-3; > 100 µM (inactive) in the assay with SNB-19. In addition, the GI50 in the assay with SR is 33.9 µM (inactive); with UACC-62, > 100 µM (inactive); in the assay on UO-31, 34.9 µM (inactive).

With `Nc1nc(Cl)c(CO)c(NCC2(CO)CCC2)n1`, the GI50 is > 100 µM (inactive) with A498; > 100 µM (inactive) with HCT-116; > 100 µM (inactive) in the assay on HOP-92; > 100 µM (inactive) with Hs-578T; > 100 µM (inactive) in the assay on IGROV-1; 75.7 µM (inactive) with KM12. Besides, the GI50 in the assay on LOX IMVI, in the assay with NCI-H522, with OVCAR-4, in the assay on OVCAR-8, in the assay with RPMI-8226 and in the assay with SK-MEL-28 was > 100 µM (inactive) each time. For the same molecule, the GI50 with SN12C is > 100 µM (inactive); with SNB-19 it was 94.2 µM (inactive); with SR, > 100 µM (inactive); in the assay with U-251, > 100 µM (inactive); in the assay with UO-31, > 100 µM (inactive).

`CC/C(C)=C1\OC(=O)C(C)C(O)C(Cc2cccnc2)NC(=O)C(NC(=O)c2ncccc2O)C(C)OC1=O` (centres undefined): the GI50 with A498 is > 100 µM (inactive); with HCT-116, 82.2 µM (inactive); in the assay with Hs-578T, 29.7 µM (inactive); with IGROV-1 it was 27.1 µM (inactive); with KM12 it was 42 µM (inactive); in the assay with LOX IMVI, > 100 µM (inactive). Moreover, the GI50 was > 100 µM (inactive) with OVCAR-4; 63.8 µM (inactive) with OVCAR-8; 90.8 µM (inactive) with RPMI-8226; > 100 µM (inactive) in the assay on SK-MEL-28; > 100 µM (inactive) in the assay with SK-MEL-2; 71.9 µM (inactive) in the assay on SK-OV-3. The GI50 in the assay on SN12C was 94 µM (inactive); in the assay on SNB-19, > 100 µM (inactive); with SR, > 100 µM (inactive); with U-251 it was > 100 µM (inactive); in the assay on UACC-62, > 100 µM (inactive).

With `CCOC(=O)NC(=S)c1ccc(O)c2ccccc12`, the GI50 is > 100 µM (inactive) in the assay with A498; 84.7 µM (inactive) with HCT-116; 21.7 µM (inactive) in the assay with Hs-578T; 13.9 µM (inactive) in the assay on IGROV-1; 39 µM (inactive) in the assay on KM12; 28.6 µM (inactive) in the assay with LOX IMVI. Moreover, the GI50 was 16.9 µM (inactive) in the assay on NCI-H522; > 100 µM (inactive) in the assay on OVCAR-4; 34.2 µM (inactive) in the assay with OVCAR-8; 74.5 µM (inactive) in the assay on RPMI-8226; 32.4 µM (inactive) with SK-MEL-28; > 100 µM (inactive) with SK-MEL-2. Besides, the GI50 in the assay with SK-OV-3 is 45.1 µM (inactive); in the assay on SNB-19, 95.5 µM (inactive); in the assay with SR, 25.5 µM (inactive); with U-251, > 100 µM (inactive); in the assay with UACC-62 it was 68.1 µM (inactive); with UO-31 it was 45.6 µM (inactive).

Turning to `CSc1ccc(C2C(Cl)C(=O)N2NC(=O)c2c(Cl)c(Cl)c(Cl)c(Cl)c2-c2nc3ccccc3[nH]2)cc1` (centres undefined), the GI50 is 31.8 µM (inactive) with A498; 15.8 µM (inactive) in the assay with HCT-116; 11.5 µM (inactive) with HOP-92; 32.5 µM (inactive) with Hs-578T; 0.402 µM (active) with IGROV-1; 16.8 µM (inactive) in the assay with KM12. Further, the GI50 was 4.18 µM (inactive) in the assay with LOX IMVI; 1.83 µM (inactive) with NCI-H522; 18.8 µM (inactive) in the assay on OVCAR-8; 17.2 µM (inactive) in the assay with SK-MEL-28; 31.6 µM (inactive) with SK-MEL-2; 26.6 µM (inactive) in the assay on SK-OV-3. For the same molecule, the GI50 in the assay on SN12C was 15.8 µM (inactive); in the assay with SNB-19 it was 29.7 µM (inactive); in the assay with SR, 2.9 µM (inactive); in the assay on UACC-62, 29.8 µM (inactive); with UO-31, 3.93 µM (inactive).

`[N-]=[N+]=NC1=C(c2ccccc2)C(=O)c2cccc3cccc1c23`: the GI50 in the assay on A498 was 1.52 µM (inactive); with HCT-116, 5.48 µM (inactive); in the assay on HOP-92 it was 17.7 µM (inactive); in the assay on Hs-578T, 10.1 µM (inactive); in the assay on IGROV-1, 15 µM (inactive); in the assay on KM12, 8.02 µM (inactive). The GI50 in the assay with LOX IMVI is 14.4 µM (inactive); with OVCAR-4 it was 46.7 µM (inactive); in the assay with RPMI-8226, 7 µM (inactive); with SK-MEL-28, 33.3 µM (inactive); in the assay with SK-MEL-2, 65 µM (inactive); in the assay on SK-OV-3 it was 25.8 µM (inactive). Further, the GI50 in the assay with SN12C was 29.9 µM (inactive); with SNB-19, 38.9 µM (inactive); with SR, 11.4 µM (inactive); in the assay with U-251, > 100 µM (inactive); in the assay on UACC-62, 5.86 µM (inactive); in the assay on UO-31, 26.1 µM (inactive).

Regarding `Nc1nc(Cl)c(N)c(NCC2(CO)CC(CCCc3ccccc3)C2)n1` (centres undefined), the GI50 in the assay with A498 is 15.5 µM (inactive); in the assay with HCT-116, 0.495 µM (active); in the assay with HOP-92, 51.1 µM (inactive); in the assay with Hs-578T, 36.7 µM (inactive); with IGROV-1, 21.6 µM (inactive); in the assay with KM12, 21.5 µM (inactive). For the same molecule, the GI50 in the assay on LOX IMVI is 16.7 µM (inactive); in the assay with NCI-H522 it was 0.121 µM (active); in the assay with OVCAR-4, > 33.7 µM (inactive); in the assay on SK-MEL-28, 47.1 µM (inactive); with SK-MEL-2 it was 0.137 µM (active); in the assay with SK-OV-3, > 100 µM (inactive). Further, the GI50 with SN12C was 62.7 µM (inactive); with SNB-19, > 55.5 µM (inactive); in the assay with SR, 23.6 µM (inactive); in the assay on U-251, 34.3 µM (inactive); in the assay with UACC-62, 24.1 µM (inactive); with UO-31 it was 12.9 µM (inactive).

As for `C=CC[C@@H]1C(=O)[C@@]2(O[Si](C(C)C)(C(C)C)C(C)C)CC[C@@H]1C[C@H]2NC(=O)OCC(Cl)(Cl)Cl`, the GI50 was > 100 µM (inactive) in the assay with A498; 27.9 µM (inactive) in the assay on HCT-116; > 100 µM (inactive) with Hs-578T; > 100 µM (inactive) in the assay with KM12; 41.5 µM (inactive) in the assay on LOX IMVI; < 0.01 µM (active) in the assay with NCI-H522. Further, the GI50 in the assay on OVCAR-4 was > 100 µM (inactive); in the assay with OVCAR-8, > 100 µM (inactive); in the assay on SK-MEL-28 it was > 100 µM (inactive); in the assay with SK-MEL-2 it was 60 µM (inactive); with SK-OV-3, > 100 µM (inactive); in the assay on SN12C, 45.3 µM (inactive). The GI50 was > 100 µM (inactive) in the assay on SNB-19; 35.4 µM (inactive) in the assay with SR; > 100 µM (inactive) with U-251; > 100 µM (inactive) in the assay on UACC-62; 56.5 µM (inactive) in the assay with UO-31.

On to `C=CCO[C@]1(CC=C)C(=O)C(=O)OC1C1COC(C)(C)O1` (some centres undefined), for which the GI50 with A498 was > 100 µM (inactive); with HCT-116 it was 32 µM (inactive); in the assay on HOP-92, 22.3 µM (inactive); in the assay with Hs-578T, 74 µM (inactive); with IGROV-1 it was > 100 µM (inactive); with KM12, 18.8 µM (inactive). In addition, the GI50 is 16.9 µM (inactive) with LOX IMVI; 21.2 µM (inactive) in the assay with NCI-H522; 29.2 µM (inactive) in the assay with OVCAR-8; 25.9 µM (inactive) in the assay on RPMI-8226; > 10 µM (inactive) in the assay on SK-MEL-28; 34.4 µM (inactive) in the assay on SN12C. Also, the GI50 in the assay with SNB-19 was > 100 µM (inactive); with SR, 22.9 µM (inactive); in the assay with U-251, 72.3 µM (inactive); in the assay on UO-31, 84.5 µM (inactive).

Consider `O=C(/C=C/c1ccsc1)c1cccs1`, for which the GI50 in the assay with A498 is > 100 µM (inactive); in the assay with HCT-116, 15.6 µM (inactive); in the assay with HOP-92 it was 29.4 µM (inactive); in the assay on Hs-578T, 40.3 µM (inactive); in the assay on IGROV-1, 53.2 µM (inactive); in the assay with KM12 it was 19.4 µM (inactive). The GI50 in the assay on NCI-H522 is 18.7 µM (inactive); in the assay on OVCAR-4 it was 44.8 µM (inactive); with OVCAR-8, > 10 µM (inactive); in the assay on SK-MEL-28, 20.9 µM (inactive); with SK-OV-3, 39.1 µM (inactive); with SN12C, 19.5 µM (inactive). The GI50 with SNB-19 was 42.6 µM (inactive); with SR, > 10 µM (inactive); with U-251, 20.5 µM (inactive); in the assay with UACC-62 it was 25.4 µM (inactive); with UO-31 it was 18.5 µM (inactive).

For `C#CC(O)/C=C/C(O)CCCC(O)CC#CC(O)C#CCCCCC(O)/C=C/CCCC(=O)CCCCCCCCCCCCCCCC(O)C(O)C#CC(=O)O` (centres undefined), the GI50 is > 25 µM (inactive) in the assay on HCT-116; > 25 µM (inactive) with HOP-92; > 25 µM (inactive) in the assay on Hs-578T; 8.55 µM (inactive) in the assay with IGROV-1; > 25 µM (inactive) in the assay with KM12; 5.37 µM (inactive) with LOX IMVI. In addition, the GI50 in the assay with NCI-H522 was 6.28 µM (inactive); with OVCAR-4, > 25 µM (inactive); in the assay on OVCAR-8, > 25 µM (inactive); in the assay on RPMI-8226 it was > 25 µM (inactive); in the assay on SK-MEL-28, > 25 µM (inactive); in the assay with SK-MEL-2, > 25 µM (inactive). In addition, the GI50 in the assay with SK-OV-3, with SN12C, in the assay with SNB-19, in the assay on SR, in the assay with U-251 and with UACC-62 was > 25 µM (inactive) throughout. Further, the GI50 with UO-31 was > 25 µM (inactive).
